Data published in article PMC12090182, “Repurposing of the RIPK1-Selective Benzo[1,4]oxazepin-4-one Scaffold for the Development of a Type III LIMK1/2 Inhibitor” (ACS Chemical Biology, 2025).

Columns and labels:
Assay in all cases: biochemical
Type in all cases: binding
[1] = target: 468 kinases including some pathogenic mutants (Homo sapiens, UniProt O14965); details: AURKA (Entrez AURKA), 100 nM; read-out: Percent Control
[2] = target: 468 kinases including some pathogenic mutants (Homo sapiens, UniProt O43683); details: BUB1 (Entrez BUB1), 100 nM; read-out: Percent Control
[3] = target: 468 kinases including some pathogenic mutants (Homo sapiens, UniProt O75116); details: ROCK2 (Entrez ROCK2), 100 nM; read-out: Percent Control
[4] = target: 468 kinases including some pathogenic mutants (Homo sapiens, UniProt P00519, Q252H)
[5] = target: 468 kinases including some pathogenic mutants (Homo sapiens, UniProt P0C264); details: SgK110 (Entrez SgK110), 1000 nM; read-out: Percent Control
[6] = target: 468 kinases including some pathogenic mutants (Homo sapiens, UniProt P10721, L576P); details: read-out: Percent Control
[7] = target: 468 kinases including some pathogenic mutants (Homo sapiens, UniProt P16234); details: PDGFRA (Entrez PDGFRA), 100 nM; read-out: Percent Control
[8] = target: 468 kinases including some pathogenic mutants (Homo sapiens, UniProt P19525); details: PRKR (Entrez EIF2AK2), 1000 nM; read-out: Percent Control
[9] = target: 468 kinases including some pathogenic mutants (Homo sapiens, UniProt P33981); details: TTK (Entrez TTK), 100 nM; read-out: Percent Control
[10] = target: 468 kinases including some pathogenic mutants (Homo sapiens, UniProt P36507); details: MEK2 (Entrez MAP2K2), 1000 nM; read-out: Percent Control
[11] = target: 468 kinases including some pathogenic mutants (Homo sapiens, UniProt P42685); details: FRK (Entrez FRK), 100 nM; read-out: Percent Control
[12] = target: 468 kinases including some pathogenic mutants (Homo sapiens, UniProt P46734); details: MEK3 (Entrez MAP2K3), 100 nM; read-out: Percent Control
[13] = target: 468 kinases including some pathogenic mutants (Homo sapiens, UniProt P48729); details: CSNK1A1 (Entrez CSNK1A1), 100 nM; read-out: Percent Control
[14] = target: 468 kinases including some pathogenic mutants (Homo sapiens, UniProt P51956); details: NEK3 (Entrez NEK3), 100 nM; read-out: Percent Control
[15] = target: 468 kinases including some pathogenic mutants (Homo sapiens, UniProt P53778); details: p38-gamma (Entrez MAPK12), 100 nM; read-out: Percent Control
[16] = target: 468 kinases including some pathogenic mutants (Homo sapiens, UniProt P53779); details: JNK3 (Entrez MAPK10), 100 nM; read-out: Percent Control
[17] = target: 468 kinases including some pathogenic mutants (Homo sapiens, UniProt P80192); details: MLK1 (Entrez MAP3K9), 1000 nM; read-out: Percent Control
[18] = target: 468 kinases including some pathogenic mutants (Homo sapiens, UniProt Q00536); details: PCTK1 (Entrez CDK16), 1000 nM; read-out: Percent Control
[19] = target: 468 kinases including some pathogenic mutants (Homo sapiens, UniProt Q16539); details: p38-alpha (Entrez MAPK14), 1000 nM; read-out: Percent Control
[20] = target: 468 kinases including some pathogenic mutants (Homo sapiens, UniProt Q86UE8); details: TLK2 (Entrez TLK2), 1000 nM; read-out: Percent Control
[21] = target: 468 kinases including some pathogenic mutants (Homo sapiens, UniProt Q8N752); details: CSNK1A1L (Entrez CSNK1A1L), 100 nM; read-out: Percent Control
[22] = target: 468 kinases including some pathogenic mutants (Homo sapiens, UniProt Q8TD19); details: NEK9 (Entrez NEK9), 100 nM; read-out: Percent Control
[23] = target: 468 kinases including some pathogenic mutants (Homo sapiens, UniProt Q99759); details: MAP3K3 (Entrez MAP3K3), 100 nM; read-out: Percent Control
[24] = target: 468 kinases including some pathogenic mutants (Homo sapiens, UniProt Q9BYP7); details: WNK3 (Entrez WNK3), 100 nM; read-out: Percent Control
[25] = target: 468 kinases including some pathogenic mutants (Homo sapiens, UniProt Q9BYT3); details: STK33 (Entrez STK33), 1000 nM; read-out: Percent Control
[26] = target: 468 kinases including some pathogenic mutants (Homo sapiens, UniProt Q9NRP7); details: STK36 (Entrez STK36), 100 nM; read-out: Percent Control
[27] = target: 468 kinases including some pathogenic mutants (Homo sapiens, UniProt Q9UQB9); details: AURKC (Entrez AURKC), 100 nM; read-out: Percent Control
[28] = target: 468 kinases including some pathogenic mutants (Homo sapiens, UniProt Q9Y4K4); details: MAP4K5 (Entrez MAP4K5), 100 nM; read-out: Percent Control

468 kinases including some pathogenic mutants (Homo sapiens, UniProt P48729), sequence (P48729 whole entry, change not shown): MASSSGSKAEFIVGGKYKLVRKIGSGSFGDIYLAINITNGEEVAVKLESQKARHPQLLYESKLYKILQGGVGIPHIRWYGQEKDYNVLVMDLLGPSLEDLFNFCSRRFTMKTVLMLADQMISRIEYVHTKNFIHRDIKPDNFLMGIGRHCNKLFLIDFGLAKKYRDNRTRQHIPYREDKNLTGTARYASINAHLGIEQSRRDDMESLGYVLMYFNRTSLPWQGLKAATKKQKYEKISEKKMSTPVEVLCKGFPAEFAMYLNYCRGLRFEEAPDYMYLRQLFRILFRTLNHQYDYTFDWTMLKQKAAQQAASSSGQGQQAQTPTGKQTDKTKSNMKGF
468 kinases including some pathogenic mutants (Homo sapiens, UniProt Q16539), sequence (Q16539 whole entry, change not shown): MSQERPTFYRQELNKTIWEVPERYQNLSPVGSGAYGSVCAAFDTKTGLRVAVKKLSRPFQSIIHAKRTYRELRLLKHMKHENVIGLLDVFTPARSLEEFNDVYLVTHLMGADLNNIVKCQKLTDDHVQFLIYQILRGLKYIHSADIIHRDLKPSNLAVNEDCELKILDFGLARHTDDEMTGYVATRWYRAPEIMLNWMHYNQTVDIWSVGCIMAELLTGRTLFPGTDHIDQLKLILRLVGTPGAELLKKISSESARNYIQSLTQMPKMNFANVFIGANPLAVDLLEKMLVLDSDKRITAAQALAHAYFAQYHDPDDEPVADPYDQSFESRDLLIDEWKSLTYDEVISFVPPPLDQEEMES
468 kinases including some pathogenic mutants (Homo sapiens, UniProt Q9BYP7), sequence (Q9BYP7 whole entry, change not shown): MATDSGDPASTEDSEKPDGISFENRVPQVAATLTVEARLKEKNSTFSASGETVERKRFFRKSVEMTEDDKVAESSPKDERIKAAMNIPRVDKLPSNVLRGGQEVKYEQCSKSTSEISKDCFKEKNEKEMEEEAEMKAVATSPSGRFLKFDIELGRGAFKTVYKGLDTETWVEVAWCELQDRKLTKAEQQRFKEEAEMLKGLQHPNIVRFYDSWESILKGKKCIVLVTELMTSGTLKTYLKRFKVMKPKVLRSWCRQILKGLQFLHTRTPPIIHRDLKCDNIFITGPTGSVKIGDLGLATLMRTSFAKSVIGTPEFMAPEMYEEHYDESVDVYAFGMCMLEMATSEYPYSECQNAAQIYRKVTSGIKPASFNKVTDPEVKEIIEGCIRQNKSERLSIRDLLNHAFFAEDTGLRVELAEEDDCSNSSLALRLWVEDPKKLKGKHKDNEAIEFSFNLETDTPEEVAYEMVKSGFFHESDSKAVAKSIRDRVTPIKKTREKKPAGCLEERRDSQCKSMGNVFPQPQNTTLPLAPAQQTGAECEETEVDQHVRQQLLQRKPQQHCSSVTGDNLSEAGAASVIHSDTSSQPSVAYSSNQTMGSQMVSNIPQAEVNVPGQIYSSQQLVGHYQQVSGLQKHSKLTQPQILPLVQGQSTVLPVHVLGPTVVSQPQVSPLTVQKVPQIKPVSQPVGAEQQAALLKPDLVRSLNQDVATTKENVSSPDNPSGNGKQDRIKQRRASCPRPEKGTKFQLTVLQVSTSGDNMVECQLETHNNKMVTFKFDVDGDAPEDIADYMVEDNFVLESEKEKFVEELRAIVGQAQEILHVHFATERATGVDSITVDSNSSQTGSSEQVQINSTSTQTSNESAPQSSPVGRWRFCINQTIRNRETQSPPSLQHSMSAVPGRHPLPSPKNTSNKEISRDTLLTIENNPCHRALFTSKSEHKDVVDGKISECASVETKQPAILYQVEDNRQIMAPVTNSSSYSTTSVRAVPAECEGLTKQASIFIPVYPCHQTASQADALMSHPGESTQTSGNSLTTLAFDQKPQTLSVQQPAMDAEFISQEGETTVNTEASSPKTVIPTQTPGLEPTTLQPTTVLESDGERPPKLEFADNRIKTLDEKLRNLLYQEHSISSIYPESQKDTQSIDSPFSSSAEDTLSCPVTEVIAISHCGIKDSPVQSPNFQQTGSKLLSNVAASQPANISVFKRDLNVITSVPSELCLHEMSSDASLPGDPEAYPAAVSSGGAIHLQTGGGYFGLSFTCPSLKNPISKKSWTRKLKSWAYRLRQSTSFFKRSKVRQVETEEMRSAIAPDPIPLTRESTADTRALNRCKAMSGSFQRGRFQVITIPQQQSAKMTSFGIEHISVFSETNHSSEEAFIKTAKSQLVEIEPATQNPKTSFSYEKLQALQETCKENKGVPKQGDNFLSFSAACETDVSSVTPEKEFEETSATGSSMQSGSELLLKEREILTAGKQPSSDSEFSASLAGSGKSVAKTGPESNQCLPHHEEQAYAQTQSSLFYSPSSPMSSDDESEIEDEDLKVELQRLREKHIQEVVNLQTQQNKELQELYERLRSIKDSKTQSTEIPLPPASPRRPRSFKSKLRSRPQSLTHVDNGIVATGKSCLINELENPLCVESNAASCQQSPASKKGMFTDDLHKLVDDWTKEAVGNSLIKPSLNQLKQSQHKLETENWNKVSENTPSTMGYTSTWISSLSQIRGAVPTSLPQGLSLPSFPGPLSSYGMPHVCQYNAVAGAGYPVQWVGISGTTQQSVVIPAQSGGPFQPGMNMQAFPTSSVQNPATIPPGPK
468 kinases including some pathogenic mutants (Homo sapiens, UniProt P51956), sequence (P51956 whole entry, change not shown): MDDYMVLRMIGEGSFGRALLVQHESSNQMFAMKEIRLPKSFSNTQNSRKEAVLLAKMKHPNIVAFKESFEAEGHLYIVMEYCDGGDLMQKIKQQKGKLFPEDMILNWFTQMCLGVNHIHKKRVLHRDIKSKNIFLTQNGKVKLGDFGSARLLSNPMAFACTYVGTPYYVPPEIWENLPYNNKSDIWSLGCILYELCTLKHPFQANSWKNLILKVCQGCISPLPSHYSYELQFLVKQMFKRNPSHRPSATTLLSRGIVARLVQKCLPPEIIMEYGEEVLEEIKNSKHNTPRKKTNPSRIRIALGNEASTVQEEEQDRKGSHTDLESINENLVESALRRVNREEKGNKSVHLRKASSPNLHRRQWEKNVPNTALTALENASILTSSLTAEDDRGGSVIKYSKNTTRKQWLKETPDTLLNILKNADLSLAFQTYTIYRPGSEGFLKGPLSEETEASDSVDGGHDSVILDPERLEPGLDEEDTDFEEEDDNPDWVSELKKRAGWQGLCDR
468 kinases including some pathogenic mutants (Homo sapiens, UniProt P46734), sequence (P46734 whole entry, change not shown): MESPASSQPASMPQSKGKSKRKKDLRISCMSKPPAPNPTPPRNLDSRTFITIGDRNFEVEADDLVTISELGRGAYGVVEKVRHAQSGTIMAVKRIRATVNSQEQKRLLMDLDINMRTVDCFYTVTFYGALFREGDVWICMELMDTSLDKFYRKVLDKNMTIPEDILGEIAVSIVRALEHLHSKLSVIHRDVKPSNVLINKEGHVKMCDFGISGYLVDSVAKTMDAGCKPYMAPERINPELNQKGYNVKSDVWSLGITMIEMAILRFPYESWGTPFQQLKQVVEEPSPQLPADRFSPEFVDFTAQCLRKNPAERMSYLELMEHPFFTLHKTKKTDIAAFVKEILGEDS
468 kinases including some pathogenic mutants (Homo sapiens, UniProt P19525), sequence (P19525 whole entry, change not shown): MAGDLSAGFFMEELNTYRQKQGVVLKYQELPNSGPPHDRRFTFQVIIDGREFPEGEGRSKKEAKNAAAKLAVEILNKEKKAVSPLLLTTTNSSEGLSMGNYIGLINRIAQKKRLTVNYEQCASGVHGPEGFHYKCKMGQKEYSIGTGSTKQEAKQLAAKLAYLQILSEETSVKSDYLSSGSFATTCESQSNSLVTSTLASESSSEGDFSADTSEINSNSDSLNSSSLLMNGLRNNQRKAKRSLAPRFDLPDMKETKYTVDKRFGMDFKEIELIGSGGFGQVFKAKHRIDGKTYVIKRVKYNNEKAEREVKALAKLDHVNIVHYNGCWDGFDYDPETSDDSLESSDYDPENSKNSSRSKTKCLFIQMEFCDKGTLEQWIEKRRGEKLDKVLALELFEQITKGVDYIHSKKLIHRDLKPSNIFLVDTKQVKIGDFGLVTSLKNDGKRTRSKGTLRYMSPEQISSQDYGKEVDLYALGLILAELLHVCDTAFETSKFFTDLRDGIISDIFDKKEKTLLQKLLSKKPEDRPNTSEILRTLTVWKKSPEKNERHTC
468 kinases including some pathogenic mutants (Homo sapiens, UniProt O43683), sequence (O43683 whole entry, change not shown): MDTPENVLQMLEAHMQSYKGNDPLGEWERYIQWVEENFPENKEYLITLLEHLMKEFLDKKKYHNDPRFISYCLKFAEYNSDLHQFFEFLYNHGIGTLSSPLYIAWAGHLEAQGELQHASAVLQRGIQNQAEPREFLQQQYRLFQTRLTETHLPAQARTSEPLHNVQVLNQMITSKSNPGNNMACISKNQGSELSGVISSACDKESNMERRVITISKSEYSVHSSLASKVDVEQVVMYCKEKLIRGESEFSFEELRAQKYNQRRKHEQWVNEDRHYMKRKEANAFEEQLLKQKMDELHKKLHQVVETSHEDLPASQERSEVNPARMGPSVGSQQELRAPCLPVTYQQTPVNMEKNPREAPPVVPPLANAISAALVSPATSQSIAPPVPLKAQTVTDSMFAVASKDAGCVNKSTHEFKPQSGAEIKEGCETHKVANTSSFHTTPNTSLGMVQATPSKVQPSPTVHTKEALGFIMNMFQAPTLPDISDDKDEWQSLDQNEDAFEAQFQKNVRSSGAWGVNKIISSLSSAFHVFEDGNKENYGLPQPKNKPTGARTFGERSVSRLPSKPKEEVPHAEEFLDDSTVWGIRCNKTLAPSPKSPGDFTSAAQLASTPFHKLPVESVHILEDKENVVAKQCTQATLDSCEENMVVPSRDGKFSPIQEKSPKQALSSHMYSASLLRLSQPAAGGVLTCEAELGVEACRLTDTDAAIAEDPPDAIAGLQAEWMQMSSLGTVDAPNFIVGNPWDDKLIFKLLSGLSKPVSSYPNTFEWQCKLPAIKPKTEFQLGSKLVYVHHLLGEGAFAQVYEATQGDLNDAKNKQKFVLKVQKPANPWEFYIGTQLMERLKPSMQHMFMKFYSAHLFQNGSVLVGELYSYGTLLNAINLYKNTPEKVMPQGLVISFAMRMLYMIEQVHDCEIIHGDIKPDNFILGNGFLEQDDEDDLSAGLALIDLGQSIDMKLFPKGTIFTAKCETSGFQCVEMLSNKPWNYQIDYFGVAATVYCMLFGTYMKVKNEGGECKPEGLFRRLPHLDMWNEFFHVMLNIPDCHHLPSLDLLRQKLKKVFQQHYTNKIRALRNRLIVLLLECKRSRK

CN1C(=O)[C@@H](N2CCc3c(nn(Cc4ccccc4)c3C(N)=O)C2=O)COc2cc(Cl)ccc21 [Compound 10, (S)-2-benzyl-6-(8-chloro-5-methyl-4-oxo-2,3,4,5-tetrahydrobenzo[b][1,4]oxazepin-3-yl)-7-oxo-4,5,6,7-tetrahydro-2H-pyrazolo[3,4-c]pyridine-3-carboxamide]
remaining activity at 0.1 µM [1]: 58% | remaining activity at 0.1 µM [2]: 84% | remaining activity at 0.1 µM [3]: 75% | Percent Control ([4]; listed as LIJTF500025): 88% | remaining activity at 0.1 µM ([4]; read-out: Percent Control): 71% | remaining activity at 1 µM [5]: 100% | remaining activity at 0.1 µM [6]: 72% | remaining activity at 0.1 µM [7]: 89% | remaining activity at 1 µM [8]: 100% | remaining activity at 0.1 µM [9]: 82% | remaining activity at 1 µM [10]: 100% | remaining activity at 0.1 µM [11]: 75% | remaining activity at 0.1 µM [12]: 85% | remaining activity at 0.1 µM [13]: 73% | remaining activity at 0.1 µM [14]: 100% | remaining activity at 0.1 µM [15]: 65% | remaining activity at 0.1 µM [16]: 77% | remaining activity at 1 µM [17]: 100% | remaining activity at 1 µM [18]: 100% | remaining activity at 1 µM [19]: 100% | remaining activity at 1 µM [20]: 100% | remaining activity at 0.1 µM [21]: 86% | remaining activity at 0.1 µM [22]: 88% | remaining activity at 0.1 µM [23]: 66% | remaining activity at 0.1 µM [24]: 73% | remaining activity at 1 µM [25]: 100% | remaining activity at 0.1 µM [26]: 100% | remaining activity at 0.1 µM [27]: 67% | remaining activity at 0.1 µM [28]: 100%
